# Results published in US20050014834A1, “Selective anesthetic agents and methods of identifying the same” (priority 2001, published 2005).
# What was measured:
# [1] = tested on: GABAA receptors; details: cited from earlier work; for potentiation of the action of GABA: native and all recombinant GABAA receptors studied to date
# [2] = target: T1, human GABAA receptor β2 subunit (position 289 mutant) (Homo sapiens, UniProt P14867+P47870, N289S); details: recombinant receptors expressed in cell lines; cited from earlier work
# T1 construct: expressed in transfected cells
# T1 sequence (P47870 25-512 N289S limits assumed): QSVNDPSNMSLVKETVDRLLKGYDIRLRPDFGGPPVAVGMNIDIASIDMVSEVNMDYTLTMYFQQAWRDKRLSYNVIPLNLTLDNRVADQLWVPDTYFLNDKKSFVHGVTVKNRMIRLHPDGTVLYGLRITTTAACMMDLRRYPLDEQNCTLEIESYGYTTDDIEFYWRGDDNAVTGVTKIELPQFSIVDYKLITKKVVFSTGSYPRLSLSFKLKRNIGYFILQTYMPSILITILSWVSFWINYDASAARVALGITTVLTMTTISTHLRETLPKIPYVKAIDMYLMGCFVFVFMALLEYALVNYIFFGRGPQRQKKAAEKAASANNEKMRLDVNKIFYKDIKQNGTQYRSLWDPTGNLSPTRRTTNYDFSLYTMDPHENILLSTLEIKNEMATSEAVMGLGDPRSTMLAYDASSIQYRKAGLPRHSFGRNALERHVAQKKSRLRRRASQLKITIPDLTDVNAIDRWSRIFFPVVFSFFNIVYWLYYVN
# T1 sequence (P14867 28-456): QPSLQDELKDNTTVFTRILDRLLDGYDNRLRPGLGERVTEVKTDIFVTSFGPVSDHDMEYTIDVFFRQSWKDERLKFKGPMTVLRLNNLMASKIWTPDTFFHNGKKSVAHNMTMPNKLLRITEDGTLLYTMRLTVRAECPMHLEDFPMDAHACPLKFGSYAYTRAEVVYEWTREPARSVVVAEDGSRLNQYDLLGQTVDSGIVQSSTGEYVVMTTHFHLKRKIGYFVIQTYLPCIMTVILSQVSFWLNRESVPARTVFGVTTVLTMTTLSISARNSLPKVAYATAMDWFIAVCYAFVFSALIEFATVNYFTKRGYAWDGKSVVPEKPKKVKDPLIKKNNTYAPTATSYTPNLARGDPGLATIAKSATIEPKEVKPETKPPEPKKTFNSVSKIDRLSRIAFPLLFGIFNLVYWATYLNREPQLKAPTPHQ
# T1 sequence (P18507 40-467 partner limits assumed): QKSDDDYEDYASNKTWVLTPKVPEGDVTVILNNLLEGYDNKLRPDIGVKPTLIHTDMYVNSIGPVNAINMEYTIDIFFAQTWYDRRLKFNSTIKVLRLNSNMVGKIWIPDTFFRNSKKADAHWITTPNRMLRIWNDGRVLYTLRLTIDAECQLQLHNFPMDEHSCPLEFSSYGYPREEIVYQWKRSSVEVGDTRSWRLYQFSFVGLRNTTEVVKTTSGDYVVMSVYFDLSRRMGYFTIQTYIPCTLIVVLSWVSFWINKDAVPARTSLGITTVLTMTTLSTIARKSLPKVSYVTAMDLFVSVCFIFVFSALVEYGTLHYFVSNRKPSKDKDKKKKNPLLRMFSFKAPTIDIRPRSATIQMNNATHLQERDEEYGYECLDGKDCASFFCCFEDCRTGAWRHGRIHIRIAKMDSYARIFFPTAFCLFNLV
# [3] = tested on: β2N289S knock-in and wildtype mice; experiment: Loss of righting reflex (LORR) as behavioural measure of anesthesia; assay type: in vivo, mouse
# Method: Loss of righting reflex (LORR) was used as a crude behavioural measure of anesthesia. Mice (n=11 wildtype, n=10 knock-in for each dose) were dosed intraperitoneally (i.p.) with 20, 30 or 40 mg/kg etomidate. Each mouse was placed in a separate cage and tested for LORR by gently rolling the mouse on it back. When the righting reflex had disappeared (usually around 90 seconds) the mouse was laid on it back on a piece of corrugated plastic and the time until righting reflex was regained was recorded. In order to avoid excessive heat loss during anesthesia a heat lamp was placed above the mice. To control for non-specific changes in anesthetic sensitivity induced by the mutation two different classes of anesthetics were also tested in this model: pentobarbitone, 50 mg/kg i.p. (n=11) and midazolam, 80 mg/kg i.p. (n=5).
# [4] = tested on: β2N289S knock-in and wildtype mice; experiment: Post-anaesthetic slow wave sleep by EEG (hypnotic hangover); assay type: in vivo, mouse; details: 12.5 mg/kg intravenous, FIG. 5
# Method: In order to quantify the amount of post-anaesthetic sleep, wildtype (n=4) and knock-in (n=4) mice were implanted with radiotelemetry transmitters for the measurement of electroencephalographic (EEG) data. Mice were allowed to recover from the surgical procedure for 13 days before experiment. Baseline EEG data was recorded on day 1 of the experimental protocol. On the 2nd experimental day, mice were dosed with 12.5 mg/kg etomidate by the intravenous route and EEG data was continuously sampled. EEG data sampled at 250 Hz (transmitter bandwidth 0.5-100 Hz, low pass data filter 70 Hz). Data analysed using Somnologica 3 in 8 sec epochs and scored for either “wake” or “slow wave sleep” according to standard electrophysiological criteria (van Gool, W. A. & Mirmiran, M., Sleep, 9, 335 (1986)). Following recovery from etomidate anaesthesia, the amount of slow wave sleep was expressed as percentage of the circadian timed matched baseline.
# [5] = target: GABAA receptor β3 subunit N289S (Homo sapiens, UniProt P28472+Q16445, N290S); details: asparagine 289 of β3 to serine; cited from earlier work
# [6] = tested on: β2N289S knock-in and wildtype mice; experiment: Rotarod test of motor co-ordination: recovery following etomidate anesthesia; assay type: in vivo, mouse; details: for time mice could stay on rotarod: 90 minutes after testing began, rod 16 rpm, 120 second trial
# Method: Wildtype (n=30) and knock-in (n=30) mice were trained to perform the rotarod test of motor co-ordination. Mice were placed on a rod revolving at 16 rpm and the time taken for them to fall off recorded. Each mouse was given successive training trials until it could remain on the rod for 3 consecutive trials of 120 second duration. Mice were then split into 3 groups (n=10 for each genotype) and dosed i.p. with 15, 20 or 30 mg/kg etomidate. Mice were then placed back on the rotarod every 10 minutes (for 90 minutes), starting from the mean time for recovery of righting reflex for a given dose (obtained from experiment 1). In this way the rate of recovery of the ability to perform a motor task could be assessed.
# [7] = tested on: β2N289S knock-in and wildtype mice; experiment: Level of anaesthesia by electroencephalography (EEG burst suppression); assay type: in vivo, mouse; details: 12.5 mg/kg intravenous; FIG. 4
# Method: In order to compare the depth of anaesthesia in both genotypes, wildtype (n=4) and knock-in (n=4) mice were implanted with radiotelemetry transmitters for the measurement of electroencephalographic (EEG) data. Mice were allowed to recover from the surgical procedure for 14-21 days before experiment. Mice were dosed with 12.5 mg/kg etomidate by the intravenous route and EEG data was continuously sampled. Data sampled at 250 Hz (transmitter bandwidth 0.5-100 Hz, low pass data filter 70 Hz). Data analysed using Somnologica 3 in 100 mSec epochs for % suppression activity per minute. Isoelectric window defined as waveform amplitude less than 5 μV (typical peak to peak amplitude ˜250 μV).
# GABAA receptor β3 subunit N289S, sequence (P28472 26-473 N290S, one chain of several): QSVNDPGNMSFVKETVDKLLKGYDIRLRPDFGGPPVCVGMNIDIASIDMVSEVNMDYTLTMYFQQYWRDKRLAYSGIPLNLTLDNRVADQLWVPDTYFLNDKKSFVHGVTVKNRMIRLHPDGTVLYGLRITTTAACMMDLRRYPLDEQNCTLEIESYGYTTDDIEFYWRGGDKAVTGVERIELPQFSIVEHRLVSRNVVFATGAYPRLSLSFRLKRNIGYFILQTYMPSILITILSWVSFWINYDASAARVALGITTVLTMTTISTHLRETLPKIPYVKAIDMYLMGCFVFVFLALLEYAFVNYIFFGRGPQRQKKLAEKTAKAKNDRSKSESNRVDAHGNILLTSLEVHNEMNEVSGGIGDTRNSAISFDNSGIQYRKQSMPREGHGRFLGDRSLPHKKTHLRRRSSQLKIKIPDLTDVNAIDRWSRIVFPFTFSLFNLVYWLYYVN
# GABAA receptor β3 subunit N289S, sequence (Q16445 20-453, one chain of several): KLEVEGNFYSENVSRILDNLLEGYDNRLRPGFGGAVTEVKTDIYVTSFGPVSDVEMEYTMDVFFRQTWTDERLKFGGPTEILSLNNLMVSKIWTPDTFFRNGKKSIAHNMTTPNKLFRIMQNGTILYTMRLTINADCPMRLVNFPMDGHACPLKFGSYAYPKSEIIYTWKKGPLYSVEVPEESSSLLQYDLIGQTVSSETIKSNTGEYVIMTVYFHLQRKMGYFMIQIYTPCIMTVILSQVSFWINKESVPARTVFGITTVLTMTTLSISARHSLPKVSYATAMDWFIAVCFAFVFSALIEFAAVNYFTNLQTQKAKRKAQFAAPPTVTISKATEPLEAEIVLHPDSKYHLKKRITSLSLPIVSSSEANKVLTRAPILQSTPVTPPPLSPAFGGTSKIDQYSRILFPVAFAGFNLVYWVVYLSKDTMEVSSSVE
structure (smiles),measurement,setting,value
CC(=O)[C@H]1CC[C@H]2[C@@H]3CC[C@H]4C[C@H](O)CC[C@]4(C)[C@H]3C(=O)C[C@]12C [alphaxalone],potentiation of the action of GABA,[1],markedly potentiate the action of GABA
CCOC(=O)c1cncn1[C@H](C)c1ccccc1 [etomidate],sensitivity of mutant β2 (position 289) receptors,[2],insensitive
same,β subunit preference of potentiation and direct activation of receptors,[1]; β2 or β3 versus β1 subunit,"favours receptors containing either a β2 or a β3 subunit, versus a β1 subunit"
same,time until righting reflex had disappeared,"[3]; after i.p. dosing 20, 30 or 40 mg/kg, 'usually'",around 90 seconds
same,"duration of LORR, knock-in versus wildtype mice","[3]; etomidate 20, 30 or 40 mg/kg i.p., F1,57=0.005, p=0.9498, FIG. 2",nearly significantly similar
same,level of slow wave sleep versus circadian matched baseline after recovery,"[4]; knock-in mice, P>0.05",not statistically different
same,level of slow wave sleep versus circadian matched baseline after recovery,"[4]; wildtype mice, up to 3 hours post recovery, ANOVA P<0.05",enhanced level of sleep
same,effect of β3 N289S mutation on GABA-modulatory and GABA-mimetic effects,[5],strongly suppressed
same,"rate of recovery of rotarod performance, wildtype versus knock-in",[6]; 15 mg/kg i.p.,recovered rotarod performance at a similar rate
same,"rate of recovery of rotarod performance, wildtype versus knock-in",[6]; 20 mg/kg and especially 30 mg/kg i.p.,wildtype mice recovered more slowly than knock-in mice
same,"recovery of performance in the rotarod assay, β2N289S mice compared with wildtype",[6]; anesthetic doses,dramatically faster recovery
same,time mice could stay on rotarod,"[6]; knock-in mice, 15 mg/kg i.p.",approximately 120 seconds
same,time mice could stay on rotarod,"[6]; wildtype mice, 15 mg/kg i.p.",approximately 120 seconds
same,effect of dose on rate of rotarod recovery,"[6]; wildtype mice, 15, 20, 30 mg/kg i.p., F18,243=5.80, p<0.00005, FIG. 3",clear effect on the rate of recovery with increasing dose
same,"EEG burst suppression (% of each minute EEG in suppression), wildtype versus knock-in",[7],no significant difference in the EEG pattern of both genotypes
Cc1ncc2n1-c1ccc(Cl)cc1C(c1ccccc1F)=NC2 [midazolam],"duration of LORR, knock-in versus wildtype mice","[3]; midazolam 80 mg/kg i.p., F1,28=0.61, p=0.44",no significant difference
CCCC(C)C1(CC)C(=O)NC(=O)NC1=O (stereo not drawn) [pentobarbitone],"duration of LORR, knock-in versus wildtype mice","[3]; pentobarbitone 50 mg/kg i.p., F1,28=0.61, p=0.44",no significant difference
CC(C)c1cccc(C(C)C)c1O [propofol],potentiation of the action of GABA,[1],markedly potentiate the action of GABA
